This is an account of results in patent publication US10046038B2, “Leptospira with increased antigenic mass” (priority 2012, dated 2018).

Test [1] has as its system Leptospira serogroup Icterohaemorrhagiae. Description: Antigenic mass of fermenter culture by antigen Elisa. As to conditions: for Ag U/10^9 cells/ml, at 3 days: BSA ingredient in EMJH medium, not supplemented. The format is cell-based, L. interrogans (sensu lato). Here is the method: A working seed of a strain of L. interrogans was inoculated into EMJH medium and incubated at 29° C. for 3 to 5 days. If needed up to 5 consecutive pre-culture passages could be made, whereby the pre-cultures were visually inspected for sufficient proliferation (turbidity) as criterion for transfer to the next passage.
(§1) All experiments were performed in 0.5, 2 or 20 L working volume, computer-controlled fermenters (Sartorius), which were filled with 0.5, 1 or 10 L sterile-filtered EMJH medium, respectively. The standard EMJH medium contained 1% w/v BSA and 0.125% w/v polysorbate 80. The pH of the medium was 7.4 ±0.1 at start. The fermenter was inoculated with 5% v/v serogroup lcterohaemorrhagiae pre-culture (passage 5), giving an inoculation density of 2-4×10^7 cells/ml at day 0.
(§2) During all fermentation experiments the temperature was controlled at about 29° C. The medium was aerated with headspace airflow, and the dissolved oxygen (pO2) concentration was controlled by automatic variation of the agitation-rate, to maintain a set pO2 concentration. Temperature, pH and pO2 concentration were monitored online, but pH and foam formation were not controlled.
In comparative experiments up to 4 fermenters were run in parallel, which started off simultaneously with the same medium and Leptospira inoculum. One fermenter then usually contained only standard EMJH medium and served as reference, while in the others different supplementations of polyunsaturated C18 fatty acid were made.
(§3) Supplementation was done either with pure linoleic acid (Sigma Aldrich, >99% pure) as a 10% v/v stock in absolute ethanol (JT Baker). Alternatively, linoleic acid was supplemented by using a BSA that was created with a high level of linoleic acid (high LA BSA). This high LA BSA was used either to replace a standard BSA in EMJH medium, or was used in addition to BSA in the EMJH medium, in which case it was added as a 25% w/v stock solution in sterile water. The high LA BSA or the pure linoleic acid/ethanol supplements were fed to a fermenter over the course of 4 hours, at 0.1-0.2 ml/hour, until the fermenter culture had received a desired total amount of linoleic acid. Different total available levels of linoleic acid have been tested, of between about 5 and 425 μg/ml in the total volume. The fermenter cultures of Leptospira were supplemented at different cell-densities i.e. at early-, mid- or end phase culture.
(§4) Daily 5 ml samples were taken aseptically, directly from the fermenter, for analyses of total cell count (by Petroff-Hausser counting chamber); antigenic mass (by antigen amount Elisa); inactivated cells; and for profiling of the fatty acid type and-relative amounts (by gas chromatography) in the culture medium.
(§5) Samples were inactivated with 0.1 or 0.2% v/v BPL, at 29° C. for 16-24 hours. The inactivated Leptospira were tested in an antigen Elisa within 24 hours.
(§6) For a reference see: R. A. Hartskeerl et al., (International course on laboratory methods for the diagnosis of Leptospirosis, 4th Edition, 1 Apr. 2004. Royal Tropical Institute, Amsterdam).
(§7) The Elisa's were set up as capture assays, whereby the same moab was used for coating and for detection.
A reference standard was prepared for each Leptospira strain that was tested by antigen Elisa. The standard is a batch of monovalent Leptospira antigen, from inactivated cells. This was prepared using common techniques, essentially by proliferating a specific strain of Leptospira in EMJH medium as described above, and was inactivated as described before.

Test [2] concerns Leptospira serogroup Australis (serovar Bratislava). The format is cell-based, L. interrogans (sensu lato).
The subject of test [3] is Leptospira serogroup Grippotyphosa. The format is cell-based, L. interrogans (sensu lato).
In test [4] the test system is Leptospira serogroup Pomona. Here is the method:
as §1, §4, §5, §6, §7
(§8) A reference standard was prepared for each Leptospira strain that was tested by antigen Elisa. The standard is a batch of monovalent Leptospira antigen, from inactivated cells. This was prepared using common techniques, essentially by proliferating a specific strain of Leptospira in EMJH medium as described above, and was inactivated as described before. Next the standard was concentrated and/or diluted in phosphate buffered saline, to contain about 1×10^9 cells/ml. An arbitrary number of antigen units was affixed to the sample, for example: 1000 Units/ml. When the standard needed replenishing, a subsequent preparation of the same standard, was compared and titrated alongside the old standard several times, before replacing it.
(§9) As before, the average antigenic mass score by Elisa was calculated per 1×10^9 cells (pre-inactivation). […] The average antigenic mass 1×10^9 cells of the reference culture was set at 0% increase.
(§10) Both alpha-and gamma C18:3 were purchased as pure chemicals (>98%). Shortly before use for supplementation, they were diluted in pure ethanol to 10% or 20% v/v, depending on the amount of C18:3 that was to be added to a culture. This dilution in ethanol was added to a Leptospira culture by addition in 5 doses, divided over a period of 4 hours.

Test [5] has as its system Leptospira serogroup Canicola (strain WS 280503). Here is the method: as §1, §4, §5, §6, §7, §8, §9, §10
Test [6] deals with Leptospira serogroup Tarassovi. The format is cell-based, L. interrogans (sensu lato). As to the method:
as §1, §3, §4, §5, §6, §7, §8, §9
Both alpha-and gamma C18:3 were purchased as pure chemicals (>98%).

Test [7] concerns Leptospira serogroup Icterohaemorrhagiae. The test is described as follows: Biomass (total cell count) and toxicity in fermenter culture. The format is cell-based, L. interrogans (sensu lato). Here is the method: as §2
The mark [8] stands for this setting: 100 μg/ml, alpha vs gamma side by side, FIGS. 19 and 20.
Where [9] appears, read: supplementation at 5×10^8 cells/ml, FIGS. 33-36.
[10] abbreviates: supplementation at 8×10^8 cells/ml, FIGS. 33-36.
The mark [11] stands for this setting: BSA used in EMJH medium, compared with standard BSA.

Read-outs that look alike come from different tables or passages of the source.

On to “BSA, Millipore: standard commercial BSA (Millipore)”, for which the “Ag U/10^9 cells/ml, at 3 days” value in test [1] was 525 Ag U/10^9 cells/ml.
Turning to `CCCCCC=CCC=CCC=CCCCCC(=O)O` [gamma C18:3, 6,9, 12-octadecatrienoic acid], the “Relative increase in antigenic mass (%)” value in test [2] (100 μg/ml gamma C18:3) was found to be 15%; in test [3] (100 μg/ml gamma C18:3), 57%; in test [4] (100 μg/ml gamma C18:3) it was 73%; in test [5] (200 μg/ml), 98%; in test [5] (300 μg/ml) it was 83%; in test [6] (100 μg/ml gamma C18:3) it was 51%. Further, the “increase in relative antigenic mass” value in test [1] (setting [8]) came to 170%. Moreover, the “increase in antigenic mass” value in test [1] (200 μg/ml, FIGS. 17 and 18) is given as 114%; in test [1] (300 μg/ml, FIGS. 17 and 18), 153%. Further, the “Relative increase in antigenic mass” value in test [1] (supplementation at 2×10^8 cells/ml, FIGS. 35-36) was 71%; in test [1] (setting [9]), 81%; in test [1] (setting [10]) it was 162%. Besides, the “toxicity on the culture” value in test [7] (400 μg/ml, FIGS. 17 and 18) is on record as “showed toxicity”.
On to `CCC=CCC=CCC=CCCCCCCCC(=O)O` [alpha C18:3, 9, 12, 15-octadecatrienoic acid], for which the “Relative increase in antigenic mass (%)” value was found to be 40% in test [2] (100 μg/ml alpha C18:3); 62% in test [2] (200 μg/ml alpha C18:3); 60% in test [3] (100 μg/ml alpha C18:3); 63% in test [3] (200 μg/ml alpha C18:3); 0% in test [4] (100 μg/ml alpha C18:3); 0% in test [4] (200 μg/ml alpha C18:3). For the same molecule, the “Relative increase in antigenic mass (%)” value in test [5] (200 μg/ml) was found to be 107%; in test [5] (300 μg/ml), 112%; in test [5] (400 μg/ml), 118%; in test [6] (100 μg/ml alpha C18:3), 59%; in test [6] (200 μg/ml alpha C18:3), 141%. The “increase in relative antigenic mass” value in test [1] (100 μg/ml single fatty acid, FIGS. 37 and 38) is 144%; in test [1] (setting [8]), 122%. Besides, the “increase in antigenic mass” value was 122% in test [1] (100 μg/ml, FIGS. 15 and 16, vs unsupplemented reference); 81% in test [1] (200 μg/ml, FIGS. 15 and 16, vs unsupplemented reference). The “Relative increase in antigenic mass” value is 163% in test [1] (supplementation at 1×10^8 cells/ml, FIGS. 33-34); 164% in test [1] (setting [9]); 140% in test [1] (setting [10]). Further, the “toxicity on the culture” value in test [7] (300 or 400 μg/ml, FIGS. 15 and 16) is listed as “toxic effects”.
On to “BSA, BovoLep ®: standard BSA enriched with a number of vegetable fatty acids, recommended for promoting growth of Leptospira (Bovogen, Australia)”, for which the “Ag U/10^9 cells/ml, at 3 days” value in test [1] was determined as 498 Ag U/10^9 cells/ml. Also, the “effect on antigenic mass” value in test [1] (setting [11]) is listed as “no significant effect”. The effect on biomass entry in test [7] (setting [11]) is “did increase the biomass”.
Turning to “BSA, BovoStar ®: a standard all-purpose BSA from the same manufacturer (Bovogen)”, the “Ag U/10^9 cells/ml, at 3 days” value in test [1] came to 533 Ag U/10^9 cells/ml.
